For 3 compounds, EC50 results are on record in patent US10118922B2 (Janssen Pharmaceutica NV, priority 2013, dated 2018).

In the assay the target is T1, short form of the GPR120 receptor (Homo sapiens, UniProt Q5NUL3).
T1 construct: host or cells: PathHunter CHO-K1 GPR120S β-Arrestin Cell Line
T1 sequence (Q5NUL3 1-361): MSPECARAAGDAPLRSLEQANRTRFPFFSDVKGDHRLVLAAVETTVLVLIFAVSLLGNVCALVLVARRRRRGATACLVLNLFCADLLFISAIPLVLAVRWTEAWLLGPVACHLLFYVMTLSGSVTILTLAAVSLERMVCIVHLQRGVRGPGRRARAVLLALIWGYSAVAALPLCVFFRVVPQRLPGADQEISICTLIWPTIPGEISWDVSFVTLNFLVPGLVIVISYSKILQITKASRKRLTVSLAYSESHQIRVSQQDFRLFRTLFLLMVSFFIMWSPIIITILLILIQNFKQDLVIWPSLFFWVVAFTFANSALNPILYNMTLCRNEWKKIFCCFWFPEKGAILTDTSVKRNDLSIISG
Nature of the assay: Human GPR120 DiscoveRx PathHunter beta-arrestin assay, Procedure β-arrestin B. The settings on record: PathHunter CHO-K1 GPR120S β-Arrestin cells, 5000 cells/well; read-out: hGPR120 β-arrestin B EC50. Type of assay: cell-based. From the text: The binding of an agonist (medium/long chain fatty acids or small molecule agonists) to the G-protein-coupled receptor GPR120 activates phospholipase C, leading to release of intracellular Ca^+2 through the generation of inositol 1,4,5-trisphosphate (InsP3 or IP3). GPR120 activation can also trigger intracellular signaling via recruitment of Beta-Arrestin. In the present method, agonist-induced activation of the human GPR120 receptor is monitored through the use of PathHunter CHO-K1 GPR120 Beta-Arrestin Cell Line engineered by DiscoveRx, as detailed below. The cell lines are designed to co-express both the ProLink/Enzyme Donor (PK)-tagged GPCR and the Enzyme […] (EA)-tagged Beta-Arrestin fusion proteins. Upon GPR120 receptor stimulation/activation, the EA-tagged Beta-Arrestin portion is translocated to the tagged receptor, where the two enzyme fragments are brought within close proximity. Under these conditions, these fragments can interact and form an active Beta-gal enzyme complex through Enzyme Fragment Complementation (EFC). This active Beta-gal complex can enzymatically hydrolyse the substrate to produce a detectable light signal; therefore, activation as a function of agonist concentration can be expressed as an EC50 value to determine relative compound activities. This in vitro assay therefore serves to assess compound agonist activity of the GPR120.
In Procedure β-arrestin B the cells used were PathHunter CHO-K1 GPR120S β-Arrestin Cell Line, expressing the short form of the GPR120 receptor (Accession #NM 181745), with 5000 cells/well.
The selected CHO-K1 GPR120 β-Arrestin cells were cultured in Ham's F12 media supplemented with 10% fetal bovine serum (FBS), 1% Glutamine, 1×p/s, 800 μg/mL G418 and 300 μg/mL Hygromycin B (for selection). Cell stocks were maintained and grown in a sub-confluent state using standard cell culture procedures. The day before the experiment, the cells were harvested with non-enzymatic cell dissociation buffer and re-suspended in complete growth media at the desired concentration. A Corning 384-plate was then seeded with the proper number of cells in a volume of 25 μL, per well. The seeded plates were incubated overnight at 37° C.
On the day of the experiment, the Assay Buffer containing (a) HBSS with Ca^++ and Mg^++, (b) 20 mM HEPES, and (c) 0.1% BSA stabilizer (pH 7.4) was prepared. The growth medium was gently removed from the cell plates and 20 μL of Assay Buffer added to each well. The plate was then incubated at 37° C. for 60 min. Test compounds were serially diluted in Assay Buffer to desired concentrations (more particularly to one or more of the following μM concentrations: 25, 12.5, 6.25, 3.125, 1.5625, 0.78125, 0.390625, 0.1953125, 0.09765625, 0.048828125, 0.024414063, 0.012207031). Five μL of compound dilution was then added to each well and the plate incubated at 37° C. for 90 min. The detection reagents were prepared according to the manufacture's instruction. Twelve μL of the detection reagents were added to each well and the plate incubated at room temperature for 60 min.
The plates were read on an EnVision instrument, using Protocol name: Luminescence, Plate type: 384 Costar, Measurement height: 3 mm, Measurement time: 1 s, Aperture: 384 Plate aperture. The % activity relative to the positive control was calculated using the following equation:
The % Activity values were plotted versus the concentration of test compound and fitted to a sigmoidal dose-response curve with a Hill slope=1 (fixed value) using nonlinear regression with GraphPad Prism 5.0 to calculate the EC50 values. The Fitting Equation was: Y=Bottom+(Top-Bottom)/(1+10^((Log EC50−X)*HillSlope)), where X is the log of the concentration and Y is the response.

For the compound `OCCCc1cc(F)c(OCc2c(Cl)nsc2-c2ccc(Cl)cc2)c(F)c1` [Cpd 78, 3-(4-{[3-Chloro-5-(4-chlorophenyl)isothiazol-4-yl]methoxy}-3,5-difluorophenyl)propan-1-ol], the 50% effective concentration (EC50) stood at 31 nM.

For `O=C(O)CCc1cc(F)c(OCc2sc(Cl)cc2-c2ccc(Cl)cc2)c(F)c1` [Cpd 2, 3-(4-{[5-Chloro-3-(4-chlorophenyl)thiophen-2-yl]methoxy}-3,5-difluorophenyl)propanoic acid], the EC50 is 68 nM.

On to `Cc1sc(-c2ccccc2)c(COc2ccc(CCC(=O)O)c(C)c2C)c1C(F)(F)F` [Cpd 33, 3-(2,3-Dimethyl-4-{[5-methyl-2-phenyl-4-(trifluoromethyl)thiophen-3-yl]methoxy}phenyl)propanoic acid], for which the EC50 was 322 nM.
